Data from patent US11851440B2, “Modulators of eukaryotic initiation factor 2B, compositions and methods” (Denali Therapeutics Inc., priority 2017, dated 2023).
Like-named read-outs stand apart in the source and are kept apart here.

Test system: ISR pathway (ATF4 translation)
Assay: ATF4 Nano Luciferase reporter integrated stress response (ISR) assay in H4 ATF4-NLuc cells
Conditions: Homo sapiens, compound 30 minutes, then 50 um sodium arsenite for 6 hours, luminescence readout
[1] = read-out: Activity (IC50), H4 ATF4-NLuc (clone 17) cells

Row | Compound | IC50 [1] | IC50 (H4 ATF4-NLuc (clone 17) cells)
1 | O=C(COc1ccc(Cl)cc1)NC12CC(c3nnc(C4CCCO4)o3)(C1)C2 (stereo not drawn) [Example 2, 2-(4-Chlorophenoxy)-N-[3-(5-tetrahydrofuran-2-yl-1,3,4-oxadiazol-2-yl)-1-bicyclo[1.1.1]pentanyl]acetamide] | 1 to 10 µM | 
2 | O=C(COc1ccc(Cl)cc1)NC12CC(c3nnc([C@H]4C[C@@H](OC(F)(F)F)C4)o3)(C1)C2 [Example 3, 2-(4-chlorophenoxy)-N-[3-[5-[cis-3-(trifluoromethoxy)cyclobutyl]-1,3,4-oxadiazol-2-yl]-1-bicyclo[1.1.1]pentanyl]acetamide] | < 1 µM | 0.0092 µM
3 | O=C(COc1ccc(Cl)cc1)NC12CC(c3nnc(CC(F)(F)F)o3)(C1)C2 [Example 4, 2-(4-chlorophenoxy)-N-[3-[5-(2,2,2-trifluoroethyl)-1,3,4-oxadiazol-2-yl]-1-bicyclo[1.1.1]pentanyl]acetamide] | 1 to 10 µM | 
4 | O=C(COc1ccc(Cl)cc1)NC12CC(c3nnc(COC4CCC4)o3)(C1)C2 [Example 5, 2-(4-Chlorophenoxy)-N-[1-[5-(cyclobutoxymethyl)-1,3,4-oxadiazol-2-yl]-3-bicyclo[1.1.1]pentanyl]acetamide] | < 1 µM | 
5 | O=C(COc1ccc(Cl)c(F)c1)NC12CC(c3nnc([C@H]4C[C@@H](OC(F)(F)F)C4)o3)(C1)C2 [Example 6, 2-(4-chloro-3-fluoro-phenoxy)-N-[1-[5-[cis-3-(trifluoromethoxy)cyclobutyl]-1,3,4-oxadiazol-2-yl]-3-bicyclo[1.1.1]pentanyl]acetamide] | < 1 µM | 0.0025 µM
6 | CC(CC(F)F)c1nnc(C23CC(NC(=O)COc4ccc(Cl)c(F)c4)(C2)C3)o1 (stereo not drawn) [Example 7, 2-(4-chloro-3-fluoro-phenoxy)-N-[1-[5-(3,3-difluoro-1-methyl-propyl)-1,3,4-oxadiazol-2-yl]-3-bicyclo[1.1.1]pentanyl]acetamide] | < 1 µM | 
7 | CC(c1nnc(C23CC(NC(=O)COc4ccc(Cl)c(F)c4)(C2)C3)o1)C1CC1 (stereo not drawn) [Example 8, 2-(4-chloro-3-fluoro-phenoxy)-N-[1-[5-(1-cyclopropylethyl)-1,3,4-oxadiazol-2-yl]-3-bicyclo[1.1.1]pentanyl]acetamide] | < 1 µM | 
8 | O=C(COc1ccc(Cl)c(F)c1)NC12CC(c3nnc(C4(F)CC4)o3)(C1)C2 [Example 10, 2-(4-chloro-3-fluoro-phenoxy)-N-[1-[5-(1-fluorocyclopropyl)-1,3,4-oxadiazol-2-yl]-3-bicyclo[1.1.1]pentanyl]acetamide] | < 1 µM | 
9 | O=C(COc1ccc(Cl)c(F)c1)NC12CC(c3nnc(CC4CC4)o3)(C1)C2 [Example 11, 2-(4-chloro-3-fluoro-phenoxy)-N-[1-[5-(cyclopropylmethyl)-1,3,4-oxadiazol-2-yl]-3-bicyclo[1.1.1]pentanyl]acetamide] | < 1 µM | 
10 | O=C(CO[C@H]1C[C@@H](OC(F)(F)F)C1)NC12CC(c3nnc(-c4ccc(Cl)c(F)c4)o3)(C1)C2 [Example 12, N-[3-[5-(4-chloro-3-fluoro-phenyl)-1,3,4-oxadiazol-2-yl]-1-bicyclo[1.1.1]pentanyl]-2-[cis-3-(trifluoromethoxy)cyclobutoxy]acetamide] | < 1 µM | 
11 | CC(C)(C)OC(=O)N1CC(c2nnc(C34CC(NC(=O)COc5ccc(Cl)c(F)c5)(C3)C4)o2)C1 [Example 13, tert-Butyl 3-[5-[3-[[2-(4-chloro-3-fluoro-phenoxy)acetyl]amino]-1-bicyclo[1.1.1]pentanyl]-1,3,4-oxadiazol-2-yl]azetidine-1-carboxylate] | < 1 µM | 
12 | CC(C)(C)OC(=O)N1CCC(c2nnc(C34CC(NC(=O)COc5ccc(Cl)c(F)c5)(C3)C4)o2)C1 (stereo not drawn) [Example 14, tert-butyl 3-[5-[3-[[2-(4-chloro-3-fluoro-phenoxy)acetyl]amino]-1-bicyclo[1.1.1]pentanyl]-1,3,4-oxadiazol-2-yl]pyrrolidine-1-carboxylate] | < 1 µM | 
13 | O=C(COc1ccc(Cl)c(F)c1)NC12CC(c3nnc(C4CN(CC(F)(F)F)C4)o3)(C1)C2 [Example 15, 2-(4-chloro-3-fluoro-phenoxy)-N-[1-[5-[1-(2,2,2-trifluoroethyl)azetidin-3-yl]-1,3,4-oxadiazol-2-yl]-3-bicyclo[1.1.1]pentanyl]acetamide] | < 1 µM | 0.0171 µM
14 | O=C(COc1ccc(Cl)c(F)c1)NC12CC(c3nnc(C4CCN(CC(F)(F)F)C4)o3)(C1)C2 (stereo not drawn) [Example 16, 2-(4-chloro-3-fluoro-phenoxy)-N-[1-[5-[1-(2,2,2-trifluoroethyl)pyrrolidin-3-yl]-1,3,4-oxadiazol-2-yl]-3-bicyclo[1.1.1]pentanyl]acetamide] | < 1 µM | 
15 | O=C(COc1ccc(Cl)c(F)c1)NC12CC(c3nnc(C4CC4)o3)(C1)C2 [Example 17, 2-(4-chloro-3-fluoro-phenoxy)-N-[3-(5-cyclopropyl-1,3,4-oxadiazol-2-yl)-1-bicyclo[1.1.1]pentanyl]acetamide] | < 1 µM | 
16 | O=C(COc1ccc(Cl)c(F)c1)NC12CC(c3nnc(C4CC4(F)F)o3)(C1)C2 (stereo not drawn) [Example 18, 2-(4-chloro-3-fluoro-phenoxy)-N-[3-[5-(2,2-difluorocyclopropyl)-1,3,4-oxadiazol-2-yl]-1-bicyclo[1.1.1]pentanyl]acetamide] | < 1 µM | 
17 | O=C(COc1ccc(Cl)c(F)c1)NC12CC(C3=NOC(C4CCCC4)C3)(C1)C2 (stereo not drawn) [Example 21, 2-(4-chloro-3-fluorophenoxy)-N-(3-(5-cyclopentyl-4,5-dihydroisoxazol-3-yl)bicyclo[1.1.1]pentan-1-yl)acetamide] | < 1 µM | 

Row | Compound | IC50 [1] | IC50 (H4 ATF4-NLuc (clone 17) cells)
18 | O=C(COc1ccc(Cl)c(F)c1)NC12CC(c3cc(C4CCCC4)on3)(C1)C2 [Example 22, 2-(4-chloro-3-fluorophenoxy)-N-(3-(5-cyclopentylisoxazol-3-yl)bicyclo[1.1.1]pentan-1-yl)acetamide] | < 1 µM | 
19 | O=C(COc1ccc(Cl)c(F)c1)NC12CC(C3=NOC(C4CCC4)C3)(C1)C2 (stereo not drawn) [Example 23, 2-(4-chloro-3-fluorophenoxy)-N-(3-(5-cyclobutyl-4,5-dihydroisoxazol-3-yl)bicyclo[1.1.1]pentan-1-yl)acetamide] | < 1 µM | 
20 | O=C(COc1ccc(Cl)c(F)c1)NC12CC(c3cc(C4CCC4)on3)(C1)C2 [Example 24, 2-(4-chloro-3-fluorophenoxy)-N-(3-(5-cyclobutylisoxazol-3-yl)bicyclo[1.1.1]pentan-1-yl)acetamide] | < 1 µM | 
21 | O=C(COc1ccc(Cl)c(F)c1)NC12CC(c3nnc(C4CCC4)o3)(C1)C2 [Example 25, 2-(4-chloro-3-fluoro-phenoxy)-N-[1-(5-cyclobutyl-1,3,4-oxadiazol-2-yl)-3-bicyclo[1.1.1]pentanyl]acetamide] | < 1 µM | 
22 | O=C(COc1ccc(Cl)c(F)c1)NC12CC(c3cc(C4CCC4)no3)(C1)C2 [Example 26, 2-(4-Chloro-3-fluorophenoxy)-N-(3-(3-cyclobutylisoxazol-5-yl)bicyclo[1.1.1]pentan-1-yl)acetamide] | < 1 µM | 
23 | O=C(COc1ccc(Cl)c(F)c1)NC12CC(c3nc(C4CCC4)co3)(C1)C2 [Example 27, 2-(4-chloro-3-fluoro-phenoxy)-N-[1-(4-cyclobutyloxazol-2-yl)-3-bicyclo[1.1.1]pentanyl]acetamide] | < 1 µM | 
24 | O=C(COC1CCC1)NC12CC(c3cn(-c4ccc(Cl)cc4)nn3)(C1)C2 [Example 28, N-[1-[1-(4-Chlorophenyl)triazol-4-yl]-3-bicyclo[1.1.1]pentanyl]-2-(cyclobutoxy)acetamide] | < 1 µM | 
25 | N#CC1CC(c2nnc(C34CC(NC(=O)COc5ccc(Cl)c(F)c5)(C3)C4)o2)C1 (stereo not drawn) [Example 29, 2-(4-chloro-3-fluoro-phenoxy)-N-[1-[5-(3-cyanocyclobutyl)-1,3,4-oxadiazol-2-yl]-3-bicyclo[1.1.1]pentanyl]acetamide] | < 1 µM | 
26 | C#CC12CC(NC(=O)COc3ccc(Cl)c(F)c3)(C1)C2 [Example 31, 2-(4-chloro-3-fluorophenoxy)-N-(3-ethynylbicyclo[1.1.1]pentan-1-yl)acetamide] | 1 to 10 µM | 
27 | O=C(COc1ccc(Cl)c(F)c1)NC12CC(c3c[nH]nn3)(C1)C2 [Example 32, N-(3-(1H-1,2,3-triazol-4-yl)bicyclo[1.1.1]pentan-1-yl)-2-(4-chloro-3-fluorophenoxy)acetamide] | < 1 µM | 
28 | N#C[C@H]1C[C@H](n2ncc(C34CC(NC(=O)COc5ccc(Cl)c(F)c5)(C3)C4)n2)C1 [Example 33, 2-(4-chloro-3-fluorophenoxy)-N-(3-(2-((trans)-3-cyanocyclobutyl)-2H-1,2,3-triazol-4-yl)bicyclo[1.1.1]pentan-1-yl)acetamide] | < 1 µM | 
29 | N#C[C@H]1C[C@H](n2cc(C34CC(NC(=O)COc5ccc(Cl)c(F)c5)(C3)C4)nn2)C1 [Example 34, 2-(4-chloro-3-fluorophenoxy)-N-(3-(1-((trans)-3-cyanocyclobutyl)-1H-1,2,3-triazol-4-yl)bicyclo[1.1.1]pentan-1-yl)acetamide] | < 1 µM | 
30 | O=C(COC1CCC1)NC12CC(c3nnc(COc4ccc(Cl)c(F)c4)[nH]3)(C1)C2 [Example 37, N-(3-(5-((4-chloro-3-fluorophenoxy)methyl)-4H-1,2,4-triazol-3-yl)bicyclo[1.1.1]pentan-1-yl)-2-cyclobutoxyacetamide] | 1 to 10 µM | 
31 | O=C(COc1ccc(Cl)c(F)c1)NC12CC(c3nnc(CC4CCC4)o3)(C1)C2 [Example 38, 2-(4-chloro-3-fluoro-phenoxy)-N-[1-[5-(cyclobutylmethyl)-1,3,4-oxadiazol-2-yl]-3-bicyclo[1.1.1]pentanyl]acetamide] | < 1 µM | 
32 | O=C(COc1ccc(Cl)c(F)c1)NC12CC(n3cnc(C4CCC4)c3)(C1)C2 [Example 39, 2-(4-chloro-3-fluoro-phenoxy)-N-[3-(4-cyclobutylimidazol-1-yl)-1-bicyclo[1.1.1]pentanyl]acetamide] | < 1 µM | 
33 | Cc1nnc(C23CC(NC(=O)COc4ccc(Cl)c(F)c4)(C2)C3)o1 [Example 40, 2-(4-chloro-3-fluoro-phenoxy)-N-[1-(5-methyl-1,3,4-oxadiazol-2-yl)-3-bicyclo[1.1.1]pentanyl]acetamide] | < 1 µM | 
